Source: US4639468A, “Derivatives of glycinamide, their preparation and their use” (priority 1979, dated 1987)

Experiments:
[1] = tested on: convulsions induced by bicuculline; assay: in vivo; details: for bicuculline (score: sum of animals protected by dosages of 10 and 100 mgr/kg): oral, 5 mice each, 3 hours before bicuculline 0.6 mgr/kg i.v., tonic convulsions
Description: The anticonvulsive effect was examined for tonic convulsions induced by bicuculline. The compounds of the invention were administrated orally at dosages of 10 and 100 mgr/kg, each to 5 mice, 3 hours before intravenous injection of bicuculline at the dosage of 0.6 mgr/kg. The number of mice protected against tonic convulsions and the number of dead mice were noted.
Amongst the substances according to the invention, 2-n-pentylaminoacetamideand its hydrochloride were more particularly studied. […] The hydrochloride was also administered intravenously. […] Table III also gives the therapeutical index (LD50/ED50).

in vivo = details: mouse, in vivo, po, mice; Table II; read-out: DL50 (the source's name)

Structure (SMILES) | bicuculline (score: sum of animals protected by dosages of 10 and 100 mgr/kg) [1] | LD50 (in vivo) | ED50 ([1]; Mus musculus, iv, 3 h, read-out: DE50)
NC(=O)CNCCCCCCO [Compound 4] | 4 | > 3000 mg/kg | 
NC(=O)CN(CCCCCCO)CC(N)=O [Compound 5] | 2 | > 3000 mg/kg | 
COC(=O)CCCCCN(CC(N)=O)CC(N)=O [Compound 6, Methyl 6-(dicarboxamidomethyl)aminohexanoate] | 6 | > 3000 mg/kg | 
NC(=O)CNCCCCO [Compound 7] | 2 |  | 
CCCCCCCCCCCCCCCCCCNCC(N)=O [Compound 10, 2-n-octadecylaminoacetamide] | 1 | > 3000 mg/kg | 
CCCCCCCCCCCCNCC(N)=O [Compound 13, 2-n-docecylaminoacetamide] | 2 | > 3000 mg/kg | 
CCOC(=O)CCCCCCCNCC(N)=O [Compound 16] | 5 | > 1000 mg/kg | 
CCCCCCCCC=CCCCCCCCCNCC(N)=O [Compound 17, 2-n-octadecen-9-ylaminoacetamide] | 2 | > 3000 mg/kg | 
NC(=O)CNCCc1ccccc1 [Compound 36, 2-(2-phenylethyl)aminocacetamide] | 7 |  | 
CCCCCCNCC(=O)NCCCCCC [Compound 37, N-n-hexyl-2-(n-hexylamino)acetamide] | 3 |  | 
CCCCCCNCC(=O)NC [Compound 38] | 3 |  | 
C=CCCCCCNCC(N)=O [Compound 40] | 4 |  | 
CCCCCNC(C)C(N)=O (centres unmarked) [Compound 41] | 4 |  | 
C#CC(C)(C)NCC(N)=O [Compound 42, 2-(1,1-dimethylpropyn-2-yl)aminoacetamide] | 6 |  | 
CCCCCCN(CC(N)=O)C(=O)C(C)(C)C [Compound 45] | 3 |  | 
CCCCCNC(C(N)=O)c1ccccc1 (centres unmarked) [Compound 46] | 5 |  | 
CCCCCCN(CC(N)=O)C(=O)OCC [Compound 47, Ethyl N-n-hexyl-N-carboxamidomethylcarbamate] | 8 |  | 
CCCCCNC(CC)C(N)=O (centres unmarked) [Compound 48, 2-(n-pentylamino)-butyramide] | 6 |  | 
NC(=O)CNCCCc1ccccc1 [Compound 49, 2-(3-phenylpropyl)aminoacetamide] | 7 |  | 
C=CCCCCCCNCC(N)=O [Compound 50] | 6 |  | 
NC(=O)CNCCCCCCCC(=O)O [Compound 51, 8-carboxamidomethylaminooctanoic acid] | 6 |  | 
NC(=O)CNCCCCc1ccccc1 [Compound 52, 2-(4-phenylbutyl)aminoacetamide] | 7 |  | 
CCCCCCNCC(=O)Nc1cccc(Cl)c1 [Compound 53] | 4 |  | 
CCCCCCNCC(=O)N(C)C [Compound 54] | 4 |  | 
CCCCNC(=O)C(C(C)C)N(CCCCOc1ccccc1)C(C)=O (centres unmarked) [Compound 55, N-n-butyl-2-[N-acetyl-N-(4-phenoxybutyl)]aminoisovaleramide] | 6 |  | 
NC(=O)CNCCC(c1ccccc1)c1ccccc1 [Compound 56] | 4 |  | 
NC(=O)CNCCOc1ccccc1 [Compound 57] | 5 |  | 
O=C1NC(=O)C(c2ccccc2)(c2ccccc2)N1 [Na Diphenylhydantoin, reference compound] |  |  | 2.63 mg/kg
